Laboratory results reported in ChEMBL document CHEMBL1128696, “Hydroxylated aromatic inhibitors of HIV-1 integrase” (J Med Chem, 1995).

Molecular target: Human immunodeficiency virus type 1 integrase (Human immunodeficiency virus 1, UniProt Q7ZJM1)
Assay: In vitro inhibitory activity against HIV-1 integrase.

Human immunodeficiency virus type 1 integrase, sequence (Q7ZJM1 whole entry): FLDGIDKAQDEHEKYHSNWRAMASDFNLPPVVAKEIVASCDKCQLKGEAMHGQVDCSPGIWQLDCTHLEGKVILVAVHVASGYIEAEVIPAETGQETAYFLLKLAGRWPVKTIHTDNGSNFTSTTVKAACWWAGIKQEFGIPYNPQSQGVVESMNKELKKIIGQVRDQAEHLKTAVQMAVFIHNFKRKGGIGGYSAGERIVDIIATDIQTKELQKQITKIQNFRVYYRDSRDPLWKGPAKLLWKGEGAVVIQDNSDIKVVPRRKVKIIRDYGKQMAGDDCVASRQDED

Structure (SMILES) | IC50
O=C(/C=C/c1cc(O)ccc1O)OCCc1ccccc1 | > 100 µM
O=C(/C=C/c1ccc(O)c(O)c1)OCc1ccccc1 [BENZYL CAFFEATE] | 9 µM
O=C(/C=C/c1ccc(F)c(F)c1)OCCc1ccccc1 | > 100 µM
COC(=O)c1ccc2c(O)c(O)ccc2c1 | 8 µM
N=c1oc2c(O)c(O)ccc2cc1C(N)=O | 93 µM
COc1cc(/C=C/C(=O)OCCc2ccccc2)ccc1O | > 100 µM
O=C(/C=C/c1ccc(O)c(O)c1)OCCc1ccccc1 [CAFFEIC ACID PHENETHYL ESTER] | 7 µM
COc1ccc(/C=C/C(=O)OCCc2ccccc2)cc1O | 60 µM
O=C(/C=C/c1cc(O)c(O)cc1O)OCCc1ccccc1 | 55 µM
O=C(OCCc1ccccc1)c1ccc2c(O)c(O)ccc2c1 | 18 µM
O=C(/C=C/c1ccc(O)c(O)c1O)OCCc1ccccc1 | 2 µM
COC(=O)c1cc2ccc(O)c(O)c2cn1 | 14 µM
CCOC(=O)/C=C/c1ccc(O)c(O)c1 [ETHYL CAFFEATE] | > 100 µM
O=C(CCc1ccccc1)NCCc1ccc(O)c(O)c1 | > 100 µM
O=C(NCc1ccccc1)c1cc2ccc(O)c(O)c2cn1 | 75 µM
O=C(/C=C/c1ccc(O)c(O)c1)OCCc1ccc2ccccc2c1 | 44 µM

Structure (SMILES) | IC50
N#C/C(=C\c1ccc(O)c(O)c1)C(N)=O | > 100 µM
O=C(/C=C/c1ccc(O)c(O)c1)OCCCc1ccccc1 | 8 µM
O=C(CCc1ccc(O)c(O)c1)NCCc1ccccc1 | > 100 µM
COC(=O)/C=C/c1ccc(O)c(O)c1 [METHYLCAFFEATE] | > 100 µM
O=C(Cc1ccccc1)NCCc1ccc(O)c(O)c1 | > 100 µM
O=C(/C=C/c1ccc(O)c(O)c1)OCCc1cccc2ccccc12 | 15 µM
O=C(CCc1ccc(O)c(O)c1)NCCc1cc(O)c(O)c(O)c1 | 4 µM
COC(=O)c1cc2cc(O)c(O)cc2cn1 | > 100 µM
O=C(NCCc1ccccc1)c1cc2ccc(O)c(O)c2cn1 | 40 µM
O=C(OCCc1ccccc1)c1ccc2cc(O)c(O)cc2c1 | 68 µM
O=C(CCc1ccc(O)c(O)c1)OCCc1ccccc1 | 11 µM
O=C(NCc1ccccc1)c1cc2cc(O)c(O)cc2cn1 | > 100 µM
N=c1oc2cc(O)c(O)cc2cc1C(N)=O | 48 µM
O=C(/C=C/c1cc(O)c(O)c(O)c1)OCCc1ccccc1 | 2 µM
COc1ccc(/C=C/C(=O)OCCc2ccccc2)cc1OC | > 100 µM
O=C(CCc1ccc(O)c(O)c1)NCCc1ccc(O)c(O)c1 | 3 µM
